This note sets out measurements from patent US20050228031A1, “Tyrosine kinase inhibitors” (priority 2004, published 2005).

What is called melting point is the temperature of the solid-liquid transition.

For `Cc1cc(C)cc(Nc2ncc(-c3ccccc3)s2)c1` [Compound 2-3, N-(3,5-dimethylphenyl)-5-phenyl-1,3-thiazol-2-amine], the melting point was 144 °C.

With `c1ccc(Nc2ncc(-c3ccccc3)o2)cc1` [Compound 5-4, N,5-diphenyl-1,3-oxazol-2-amine], the melting point is 169 to 170 °C.

For the compound `c1ccc(-c2cnc(Nc3ccc4c(c3)CCC4)o2)cc1` [Compound 5-5, N-(2,3-dihydro-1H-inden-5-yl)-5-phenyl-1,3-oxazol-2-amine], the melting point stood at 152 °C.

As for `FC(F)(F)c1cc(Nc2ncc(-c3ccccc3)o2)cc(C(F)(F)F)c1` [Compound 5-6, N-[3,5-bis(trifluoromethyl)-phenyl]-5-phenyl-1,3-oxazol-2-amine], the melting point turned out to be 203 °C.
